According to PubChem BioAssay AID1963959 (Molecular Pharmacology Branch, DTP, NCI, 2024):

System: T-47D spheroids with HUVEC/MSC, viability
Experiment: Anticancer human tumor T-47D cell line growth inhibition [PI3K];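 also: spheroids exposed to agents for seven days before reading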;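 as to viability, T/C: percent of DMSO vehicle control luminescence so 100% = untreated growth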
Settings: for IC50: curve of first compound; for viability, T/C: stronger effect = lower value
Summary of the method: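 Spheroid viability read-out. Co-cultures contained the tumor line plus HUVEC and human MSCs. Each agent was paired with a PI3K inhibitor (inavolisib, alpelisib, duvelisib, copanlisib) across half-log dilutions starting at clinical Cmax, or at 10 microM when Cmax was unknown.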

[1] = second compound 0.0316 µM, first compound 0.0316 µM
[2] = second compound 0.0316 µM, first compound 0.1 µM
[3] = second compound 0.0316 µM, first compound 0.316 µM
[4] = second compound 0.0316 µM, first compound 1 µM
[5] = second compound 0.0316 µM, first compound 3.16 µM
[6] = second compound 0.0316 µM, first compound 10 µM
[7] = second compound 0.1 µM, first compound 0.0316 µM
[8] = second compound 0.1 µM, first compound 0.1 µM
[9] = second compound 0.1 µM, first compound 0.316 µM
[10] = second compound 0.1 µM, first compound 1 µM
[11] = second compound 0.1 µM, first compound 3.16 µM
[12] = second compound 0.1 µM, first compound 10 µM
[13] = second compound 0.316 µM, first compound 0.0316 µM
[14] = second compound 0.316 µM, first compound 0.1 µM
[15] = second compound 0.316 µM, first compound 0.316 µM
[16] = second compound 0.316 µM, first compound 1 µM
[17] = second compound 0.316 µM, first compound 3.16 µM
[18] = second compound 0.316 µM, first compound 10 µM
[19] = second compound 1 µM, first compound 0.0316 µM
[20] = second compound 1 µM, first compound 0.1 µM
[21] = second compound 1 µM, first compound 0.316 µM
[22] = second compound 1 µM, first compound 1 µM
[23] = second compound 1 µM, first compound 3.16 µM
[24] = second compound 1 µM, first compound 10 µM
[25] = second compound 3.16 µM, first compound 0.0316 µM
[26] = second compound 3.16 µM, first compound 0.1 µM
[27] = second compound 3.16 µM, first compound 0.316 µM
[28] = second compound 3.16 µM, first compound 1 µM
[29] = second compound 3.16 µM, first compound 3.16 µM
[30] = second compound 3.16 µM, first compound 10 µM
[31] = second compound 10 µM, first compound 0.0316 µM
[32] = second compound 10 µM, first compound 0.1 µM
[33] = second compound 10 µM, first compound 0.316 µM
[34] = second compound 10 µM, first compound 1 µM
[35] = second compound 10 µM, first compound 3.16 µM
[36] = second compound 10 µM, first compound 10 µM

CC(Cn1ccc(-c2ccc(C#N)c(Cl)c2)n1)NC(=O)c1cc(C(C)O)[nH]n1 (centres undefined) + CC(Nc1ncnc2nc[nH]c12)c1cc2cccc(Cl)c2c(=O)n1-c1ccccc1
IC50 (second compound 0.0316 µM): > 10 µM
IC50 (second compound 0.1 µM): > 10 µM
IC50 (second compound 0.316 µM): > 10 µM
IC50 (second compound 1 µM): > 10 µM
IC50 (second compound 3.16 µM): > 10 µM
IC50 (second compound 10 µM): > 10 µM
viability, T/C [1]: 83.6%
viability, T/C [2]: 76.1%
viability, T/C [3]: 87.8%
viability, T/C [4]: 90%
viability, T/C [5]: 86.2%
viability, T/C [6]: 51%
viability, T/C [7]: 93.1%
viability, T/C [8]: 80%
viability, T/C [9]: 75.7%
viability, T/C [10]: 82.3%
viability, T/C [11]: 85.6%
viability, T/C [12]: 54.9%
viability, T/C [13]: 90.7%
viability, T/C [14]: 107%
viability, T/C [15]: 86.4%
viability, T/C [16]: 87.5%
viability, T/C [17]: 74.9%
viability, T/C [18]: 62.1%
viability, T/C [19]: 80.2%
viability, T/C [20]: 77.4%
viability, T/C [21]: 92.9%
viability, T/C [22]: 80.9%
viability, T/C [23]: 74.4%
viability, T/C [24]: 64%
viability, T/C [25]: 84.5%
viability, T/C [26]: 86.5%
viability, T/C [27]: 87.7%
viability, T/C [28]: 85.7%
viability, T/C [29]: 81.4%
viability, T/C [30]: 52.4%
viability, T/C [31]: 80.7%
viability, T/C [32]: 84.3%
viability, T/C [33]: 75.2%
viability, T/C [34]: 80.1%
viability, T/C [35]: 72.2%
viability, T/C [36]: 56.4%

CC(Cn1ccc(-c2ccc(C#N)c(Cl)c2)n1)NC(=O)c1cc(C(C)O)[nH]n1 (centres undefined) + Cc1nc(NC(=O)N2CCCC2C(N)=O)sc1-c1ccnc(C(C)(C)C(F)(F)F)c1
IC50 (second compound 0.0316 µM): > 10 µM
IC50 (second compound 0.1 µM): > 10 µM
IC50 (second compound 0.316 µM): > 10 µM
IC50 (second compound 1 µM): > 10 µM
IC50 (second compound 3.16 µM): > 10 µM
IC50 (second compound 10 µM): < 0.0316 µM
viability, T/C [1]: 97%
viability, T/C [2]: 103%
viability, T/C [3]: 118%
viability, T/C [4]: 84%
viability, T/C [5]: 88.8%
viability, T/C [6]: 63.6%
viability, T/C [7]: 109%
viability, T/C [8]: 88.2%
viability, T/C [9]: 91.8%
viability, T/C [10]: 90.9%
viability, T/C [11]: 79.5%
viability, T/C [12]: 67.9%
viability, T/C [13]: 100%
viability, T/C [14]: 101%
viability, T/C [15]: 93.8%
viability, T/C [16]: 96.8%
viability, T/C [17]: 85.7%
viability, T/C [18]: 66.6%
viability, T/C [19]: 95.5%
viability, T/C [20]: 95.8%
viability, T/C [21]: 84.4%
viability, T/C [22]: 87.6%
viability, T/C [23]: 85%
viability, T/C [24]: 63.2%
viability, T/C [25]: 82.8%
viability, T/C [26]: 73.4%
viability, T/C [27]: 61%
viability, T/C [28]: 65.8%
viability, T/C [29]: 63.1%
viability, T/C [30]: 50.4%
viability, T/C [31]: 36%
viability, T/C [32]: 42.3%
viability, T/C [33]: 44.2%
viability, T/C [34]: 45.5%
viability, T/C [35]: 36.8%
viability, T/C [36]: 37.9%
